Earlier results on one compound are cited in US6846495B2, “Compositions having improved delivery of actives” (The Procter & Gamble Company, priority 1999, dated 2005).

The conditions of this series: intranasal formulations.

In the case of `COc1ccc2c(c1)[C@@]13CCCC[C@H]1[C@@H](C2)N(C)CC3` [Dextromethorphan, 3-methoxy-17-methylmorphinan], the bioavailability entry was “substantial increases in bioavailability”.
